Laboratory results reported in patent EP4048276B1, “SOLID PHARMACEUTICAL FORMULATIONS COMPRISING TICAGRELOR” (Santa Farma Ilaç Sanayi A.S., priority 2019, dated 2021).
In brackets after ≈: the same amount, converted by molar mass. Like-named read-outs stand apart in the source and are kept apart here.

How the values were obtained:
Assay type in all cases: physicochemical
[1] = Bulk/tapped density, compressibility index, Hausner ratio and flowability of drug substance
Protocol: (§1) Moreover, this low aqueous solubility of ticagrelor leads to an increase of relevance of particle size. Solubility studies in human intestinal fluids, bulk-tapped density, compressibility index, Hausner ratio, flowability studies of drug substance were performed prior to beginning of the development process of pharmaceutical drug product.
In addition, bulk density and tapped density values of ticagrelor was investigated. By using the results obtained, compressibility index, Hausner ratio and flowability of drug substance was designated.

[2] = Particle size distribution analysis
Protocol: Moreover, particle size distribution analysis for ticagrelor was performed.

[3] = Solubility study of ticagrelor drug substance in water and pH media
Protocol: as §1

Bulk density [1]: 0.157 | Compressibility index [1]: 39% | Flowability [1]: Very poor | Hausner ratio [1]: 1.639 | Tapped density [1]: 0.257 | D10 [2]: 3.0 µm | D50 [2]: 6.4 µm | D90 [2]: 12.5 µm | solubility ([3]; pH 1.2 medium, pH 1.2, simulated gastric fluid, read-out: Average solubility, pH: 1.2): 14 µg/mL (≈ 26.8 µM) | solubility ([3]; pH 4.5 medium, pH 4.5, aqueous buffer, read-out: Average solubility, pH: 4.5): 6 µg/mL (≈ 11.5 µM) | solubility ([3]; pH 6.8 medium, pH 6.8, aqueous buffer, read-out: Average solubility, pH: 6.8): 5 µg/mL (≈ 9.57 µM) | solubility ([3]; water, read-out: Average solubility, Water): 6 µg/mL (≈ 11.5 µM)
SMILES: CCCSc1nc(N[C@@H]2C[C@H]2c2ccc(F)c(F)c2)c2nnn([C@@H]3C[C@H](OCCO)[C@@H](O)[C@H]3O)c2n1 [Ticagrelor, (1S,2S,3R,5S)-3-(7-{[(1R,2S)-2-(3,4-Diflourophenyl)cyclopropyl]amino}-5-(propylsulfanyl)-3H-[1,2,3]triazol[4,5-d]pyrimidine-3-yl)-5-(2-hydroxyethoxy)cyclopentane-1,2-diol]
